According to patent US20230365673A1, “MEANS FOR REDUCING RADIO- AND CHEMOTHERAPY RESISTANCE AND ADVERSE EFFECTS” (JOHANN WOLFGANG GOETHE-UNIVERSITÄT FRANKFURT AM MAIN, priority 2020, published 2023):

System: APTKA orthotopic tumours
Experiment: Orthotopic APTKA organoid rectal cancer model with local fractionated radiotherapy (5×2 Gy)
Assay type: in vivo, C57BL/6 mice
Excerpt: (A and B) Schematic representation of the orthotopic transplantation of APTKA & APTK mouse organoids into C57BL/6 mice followed by local fractionated radiotherapy (5×2 Gy) of established tumours and end point colonoscopy 21 days after the last irradiation. (C) Heat map analysis of RNA sequencing data of APTKA (n=4) and APTK (n=5) orthotopic tumours. (D) GSEA of CAF signature using RNA sequencing data of APTKA and APTK orthotopic tumours. Significant NES≤−1; FDR q-value<0.05. (E) H&E stained sections of APTK and APTKA untreated and irradiated orthotopic tumours 21 days after last irradiation. Scale bars=500 μm. (F and G) Overall tumour (mm3) and invasive area (%) of untreated (n=5) and irradiated (n=6) APTK orthotopic tumours. Data are mean±SD. *** p<0.001 and **** p<0.0001 by t-test. (H and I) Overall tumour (mm3) and invasive area (%) of untreated (n=5) and irradiated (n=5) APTKA orthotopic tumours. ** p<0.01 by t-test. Data are mean±SD. (J) Frequency of mice with liver metastasis in untreated or irradiated APTKA orthotopic tumours (n=5 mice per group). (K) H&E staining of untreated and irradiated APTKA orthotopic tumours. Scale bars=300 μm. Representative images of αSMA (Green), Vimentin (Blue) and Collagen (Yellow) multiplex immunofluorescence of untreated and irradiated APTKA tumours. Scale bars=400 μm. Sirius red staining of APTKA orthotopic tumours upon radiotherapy. Scale bars=300 μm. (L) Percent of αSMA, Vim and Col1 triple positive cells in untreated (n=9) and irradiated (n=10) APTKA tumours. Data are mean±SD. ** p<0.01 by t-test. (M) Sirius red pixel positivity in untreated (n=7) and irradiated (n=6) APTKA tumours. Data are mean±SD. * p<0.05 by t-test. (N-P) Ex vivo irradiation (5×2Gy) of APTKA and APTK organoids: (N) relative fluorescent units of untreated and irradiated organoids, 6 h post last dose, using resazurin cell viability kit (n=4 independent wells per condition); (O) quantification of the number of fully grown untreated and irradiated organoids 4 days' post first reseeding (n=7 to 9 independent wells per condition); (P) subcutaneous tumour growth in C57BL/6 mice transplanted with untreated or irradiated organoids. Data are mean±SD. N=6 mice per group; p<0.05 by one-way ANOVA followed by Tukey's multiple comparisons test. Representative results from one experiment which has been independently repeated least 3 times.
(A) Schematic representation of the orthotopic transplantation of APTKA mouse organoids into C57BL/6 mice followed by 5×2 Gy radiotherapy of established tumours untreated or treated daily with anakinra (500 μg/day) for 21 days. (B and C) Overall tumour size (mm3) and % invasive area of 5×2Gy radiated APTKA orthotopic tumours 21 days after last irradiation without (n=5) or with (n=4) anakinra treatment (500 μg/day). Data are mean±SD; p<0.05 by t-test. (D) Frequency of mice with liver metastasis upon irradiation of APTKA orthotopic tumours without (n=5) or with (n=4) anakinra treatment (500 μg/day). (E and F) Sirius red staining of untreated (n=3) or anakinra treated (n=4) 5×2 Gy irradiated APTKA tumours. Scale bars=200 μm. Data are mean±SD. *** p<0.001 by t-test. (G, H) αSMA immunofluorescent staining and its quantification of irradiated APTKA orthotopic tumours without (n=5) or with (n=4) anakinra treatment (500 μg/day). Scale bars=200 μm. Data are mean±SD; p<0.05 by t-test. (I) Schematic representation of IL-1α overexpression in APTK organoids by CRISPRa/Cas9. (J) ELISA of IL-1α protein levels in conditioned media from APTK sgctrl and APTK sgIL-1α organoids (n=4 independent wells per group). Data are mean±SD. **** p<0.0001 by t-test. (K) Relative RNA expression of inflammatory genes in fibroblasts treated with conditioned media from APTK sgctrl and APTK sgIL-1α organoids for 24 h (n=5 independent wells per condition). Data are mean±SD. **** p<0.0001 by t-test. Representative results from one experiment which has been independently repeated 2 times. […]

[1] = anakinra 500 μg/day plus 5×2 Gy
[2] = anakinra 500 μg/day plus 5×2 Gy, 21 days after last irradiation

anakinra: Kineret®, an interleukin-1 receptor antagonist
APTKA tumour growth (anakinra 500 μg/day alone, no irradiation, data not shown): did not affect APTKA tumour growth significantly
metastasis formation (liver) [1]: blocked metastasis formation
number of αSMA+ cells [1]: decreased number of αSMA+cells
sirius red staining [1]: significant decrease in sirius red staining
invasion (% invasive area) [2]: marked reduction in tumour size and invasion
tumour size [2]: marked reduction in tumour size
